This passage reports IC50, Cmax and Kd results from ChEMBL document CHEMBL5579821, “Non-kinase off-target inhibitory activities of clinically-relevant kinase inhibitors” (Eur J Med Chem, 2024).

For one data set, the target named is T1, Adenosine receptor A3 (Homo sapiens, UniProt P0DMS8).
T1 sequence (P0DMS8 whole entry): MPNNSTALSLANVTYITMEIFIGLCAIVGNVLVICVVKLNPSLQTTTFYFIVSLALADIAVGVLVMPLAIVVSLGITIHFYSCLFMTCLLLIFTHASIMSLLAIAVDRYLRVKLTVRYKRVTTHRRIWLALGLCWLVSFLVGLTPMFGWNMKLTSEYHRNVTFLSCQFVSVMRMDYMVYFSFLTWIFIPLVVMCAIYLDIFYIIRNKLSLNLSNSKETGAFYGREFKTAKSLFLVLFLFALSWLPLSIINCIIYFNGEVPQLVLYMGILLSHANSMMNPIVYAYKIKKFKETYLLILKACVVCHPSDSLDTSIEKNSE

A short description of data set [1]: clinical. The note with it: human, plasma, 5 mg.
Data set [2] concerns the target T2, Aldo-keto reductase family 1 member C3 (Homo sapiens, UniProt P42330).
T2 sequence (P42330 whole entry): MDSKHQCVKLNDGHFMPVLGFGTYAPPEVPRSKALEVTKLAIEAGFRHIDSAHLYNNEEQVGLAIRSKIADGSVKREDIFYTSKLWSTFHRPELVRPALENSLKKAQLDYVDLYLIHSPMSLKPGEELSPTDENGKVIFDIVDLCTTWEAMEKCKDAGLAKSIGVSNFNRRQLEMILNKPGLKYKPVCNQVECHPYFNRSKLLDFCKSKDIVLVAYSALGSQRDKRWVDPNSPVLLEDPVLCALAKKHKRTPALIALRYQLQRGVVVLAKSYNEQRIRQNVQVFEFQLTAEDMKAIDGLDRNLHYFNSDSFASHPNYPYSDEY

A short description of data set [3]: clinical. The note with it: human, 300 mg.
The nature of data set [4]: clinical. The note with it: human, in vivo, po, 50 mg.
The nature of the next data set: cells. The note with it: Homo sapiens, NIH3T3.
A short description of data set [5]: clinical. The note with it: human, plasma.
Data set [6] deals with Proto-oncogene tyrosine-protein kinase receptor Ret (Homo sapiens, UniProt P07949).
Sequence of Proto-oncogene tyrosine-protein kinase receptor Ret (P07949 whole entry): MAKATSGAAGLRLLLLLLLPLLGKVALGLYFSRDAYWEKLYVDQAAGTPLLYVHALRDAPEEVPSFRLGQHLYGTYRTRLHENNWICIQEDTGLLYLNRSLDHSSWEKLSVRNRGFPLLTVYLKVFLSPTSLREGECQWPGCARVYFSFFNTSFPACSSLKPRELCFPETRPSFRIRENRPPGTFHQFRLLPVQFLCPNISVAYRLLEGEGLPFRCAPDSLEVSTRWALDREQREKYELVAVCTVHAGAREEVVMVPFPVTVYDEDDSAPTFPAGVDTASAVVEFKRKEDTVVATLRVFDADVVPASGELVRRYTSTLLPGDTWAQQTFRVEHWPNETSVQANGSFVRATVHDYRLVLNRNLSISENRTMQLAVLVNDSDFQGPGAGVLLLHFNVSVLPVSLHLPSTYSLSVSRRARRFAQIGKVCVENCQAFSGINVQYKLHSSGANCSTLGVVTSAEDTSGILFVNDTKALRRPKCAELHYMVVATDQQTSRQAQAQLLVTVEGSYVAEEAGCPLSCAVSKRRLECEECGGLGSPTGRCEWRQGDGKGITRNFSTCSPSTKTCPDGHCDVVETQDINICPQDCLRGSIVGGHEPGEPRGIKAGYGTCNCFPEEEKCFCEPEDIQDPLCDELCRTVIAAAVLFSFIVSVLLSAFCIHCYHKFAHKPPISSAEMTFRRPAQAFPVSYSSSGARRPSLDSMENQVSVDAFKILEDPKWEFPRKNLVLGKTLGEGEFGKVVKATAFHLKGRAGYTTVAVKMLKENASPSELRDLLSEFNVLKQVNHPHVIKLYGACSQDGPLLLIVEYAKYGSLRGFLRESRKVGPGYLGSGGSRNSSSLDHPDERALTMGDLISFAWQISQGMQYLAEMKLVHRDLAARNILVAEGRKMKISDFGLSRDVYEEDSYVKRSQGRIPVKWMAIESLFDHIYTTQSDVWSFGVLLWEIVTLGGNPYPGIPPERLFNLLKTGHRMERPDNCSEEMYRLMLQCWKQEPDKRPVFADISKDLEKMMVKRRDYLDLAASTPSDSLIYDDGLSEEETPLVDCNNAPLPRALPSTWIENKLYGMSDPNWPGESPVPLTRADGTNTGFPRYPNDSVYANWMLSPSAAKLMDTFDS

As usually defined, the IC50 is the point on the concentration scale where inhibition reaches its midpoint. Regarding `COc1cc(Nc2ncc(F)c(Nc3ccc4c(n3)NC(=O)C(C)(C)O4)n2)cc(OC)c1OC`, half-maximal inhibition against Adenosine receptor A3 (IC50) required 18 nM. The term Cmax denotes the highest concentration seen after dosing. `CNC(=O)c1ccccc1Sc1ccc2c(/C=C/c3ccccn3)n[nH]c2c1` [AXITINIB] showed a Cmax in “clinical [1]” of 27.8 ng/mL. One may read the Kd as the constant that tells how readily two partners part at equilibrium. For the molecule `CCc1cnn2c(NCc3ccc[n+]([O-])c3)cc(N3CCCC[C@H]3CCO)nc12` [DINACICLIB], in data set [2], the Kd stood at 69 nM.

With `Cc1cnc(Nc2ccc(OCCN3CCCC3)cc2)nc1Nc1cccc(S(=O)(=O)NC(C)(C)C)c1` [FEDRATINIB], in “clinical [3]”, the Cmax is 971 ng/mL. Take `CO[C@@H]1[C@H](N(C)C(=O)c2ccccc2)C[C@H]2O[C@]1(C)n1c3ccccc3c3c4c(c5c6ccccc6n2c5c31)C(=O)NC4` [MIDOSTAURIN]: the concentration in the data set “clinical [4]” peaked (Cmax at 192 h) at 1600 ng/mL. As for `Cc1cn(-c2cc(NC(=O)c3ccc(C)c(Nc4nccc(-c5cccnc5)n4)c3)cc(C(F)(F)F)c2)cn1` [NILOTINIB], it took 374 nM to reach half-maximal inhibition in the data set “cells” (IC50). In addition, the Cmax in “clinical [5]” was 1640 ng/mL. For the molecule `CCCS(=O)(=O)Nc1ccc(F)c(C(=O)c2c[nH]c3ncc(-c4ccc(Cl)cc4)cc23)c1F` [VEMURAFENIB], it took 4.8 nM to reach half-maximal inhibition in data set [6] (IC50).
